Holding throughout (type): cell-based
Assay [1] relates to HTT mRNA. Kind of assay: Splicing RT-qPCR assay (THP), Table 2A. As to conditions: Table 2A (THP); for AC50: AJ mRNA increase, read-out: HTT AJ (increase in alternative junction mRNA, AC50); for IC50: CJ mRNA decrease, read-out: HTT CJ (decrease in canonical junction mRNA, IC50).
Assay [2] relates to MYB mRNA. Kind of assay: Splicing RT-qPCR assay (THP), Table 2A. To be noted: Table 2A (THP); for AC50: AJ mRNA increase, read-out: MYB AJ (increase in alternative junction mRNA, AC50); for IC50: CJ mRNA decrease, read-out: MYB CJ (decrease in canonical junction mRNA, IC50). (Real-time PCR tracks product formation cycle by cycle.)
Assay [3] relates to HTT mRNA. Kind of assay: Gene panel canonical junction qPCR assay, decrease in CJ mRNA, Table 3. To be noted: decrease in canonical junction (CJ) mRNA, gene panel qPCR, Table 3. An outline of the steps:
(§1)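 IC50 denotes the concentration giving 50% decrease in canonical-junction mRNA, fitted by 4-parameter logistic to percentage response derived from ΔΔCt versus housekeeping gene and DMSO control. Cells (A673 or K562) exposed 24 h to 11-point 3-fold serial dilutions from 10 uM top, DMSO ≤0.25%; junction-spanning primer/probe qPCR.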

The subject of assay [4] is MYB mRNA. Described as above. To be noted: decrease in canonical junction (CJ) mRNA, gene panel qPCR, Table 3. The method, boiled down: as §1
Assay [5] has as its system SH-SY5Y (human neuroblastoma) cells. The experiment in a line: Cell viability, Cell Titer Glo 2.0 assay. To be noted: read-out: Viability SHSY5Y.3 GI50. An outline of the steps: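 Viability was read by CellTiter-Glo 2.0 luminescence after a 72-hour compound exposure at 37° C. under 5% CO2. Cells were in IMDM plus 10% FBS containing 0.1% DMSO, and medium-only wells gave the blank.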
In general terms: In ATP-based viability assays light output follows the ATP content of the culture.

15 compounds from patent US20260285853A1, “COMPOUNDS AND METHODS FOR MODULATING SPLICING” (REMIX THERAPEUTICS INC., priority 2023, published 2026) can be followed below.

As a reminder, the AC50 is the concentration at which the activity in the assay is half-maximal. The term IC50 denotes the point on the concentration scale where inhibition reaches its midpoint. The term GI50 denotes the concentration giving 50% growth inhibition. Take `Cc1cn2cc(NC(=O)c3c(F)cc(N4CCC(NC5CC5)CC4)c4cn(C)nc34)c(Oc3ccccc3)c(F)c2n1` [Compound 377, 4-[4-(cyclopropylamino)-1-piperidyl]-6-fluoro-N-(8-fluoro-2-methyl-7-phenoxyimidazo [1,2-a]pyridin-6-yl)-2-methyl-indazole-7-carboxamide]: the AC50 with HTT mRNA [1] and in the assay with MYB mRNA [2] was < 0.1 µM throughout. Further, the IC50 in the assay on HTT mRNA [1], in the assay with MYB mRNA [2], in the assay on HTT mRNA [3] and with MYB mRNA [4] was < 0.1 µM throughout. Besides, the GI50 in assay [5] was < 0.1 µM.
For the compound `Cc1cn2cc(NC(=O)c3ccc(N4CCC(NC5(CF)CC5)CC4)c4cn(C)nc34)cc(F)c2n1` [Compound 378, 4-[4-[[1-(fluoromethyl)cyclopropyl]amino]-1-piperidyl]-N-(8-fluoro-2-methyl-imidazo[1,2-a]pyridin-6-yl)-2-methyl-indazole-7-carboxamide], the results for the half-maximal activity concentration (AC50) in the assay on HTT mRNA [1] and in the assay on MYB mRNA [2] were 1 to 10 µM and < 0.1 µM, respectively. In addition, the IC50 in the assay on HTT mRNA [1] was 1 to 10 µM; in the assay on MYB mRNA [2], < 0.1 µM; in the assay on HTT mRNA [3], 1 to 10 µM; in the assay with MYB mRNA [4], < 0.1 µM. In assay [5], the GI50 was 0.1 to 1 µM.
Turning to `CCNC1CCN(c2cc(F)c(C(=O)Nc3cn4cc(CO)nc(C)c4n3)c3nn(C)cc23)CC1` [Compound 379, 4-[4-(ethylamino)-1-piperidyl]-6-fluoro-N-[6-(hydroxymethyl)-8-methyl-imidazo[1,2-a]pyrazin-2-yl]-2-methyl-indazole-7-carboxamide], the figures for the AC50 with HTT mRNA [1] and with MYB mRNA [2] were > 10 µM and 1 to 10 µM, respectively. Also, the IC50 was > 10 µM in the assay with HTT mRNA [1], 1 to 10 µM in the assay with MYB mRNA [2], > 10 µM in the assay with HTT mRNA [3] and 1 to 10 µM with MYB mRNA [4]. Also, in assay [5], the GI50 is > 10 µM.
Consider `CCNC1CCN(c2cc(F)c(C(=O)Nc3nc4c(C)nc(C)cc4o3)c3nn(C)cc23)CC1` [Compound 380, N-(4,6-dimethyl-oxazolo-[4,5-c]-pyridin-2-y1)-4-[4-(ethylamino)-1-piperidy1]-6-fluoro-2-methyl-indazole-7-carboxamide], for which the figures for the AC50 with HTT mRNA [1] and with MYB mRNA [2] were > 10 µM and 1 to 10 µM, respectively. Besides, the IC50 in the assay on HTT mRNA [1] was > 10 µM; with MYB mRNA [2], 1 to 10 µM; with HTT mRNA [3], > 10 µM; in the assay with MYB mRNA [4] it was 1 to 10 µM. Further, in assay [5], the GI50 is > 10 µM.
On to `CCNC1CCN(c2cc(F)c(C(=O)Nc3cn4ccncc4n3)c3nn(C)cc23)CC1` [Compound 381, 4-[4-(ethylamino)-1-piper-idyl]-6-fluoro-N-imidazo [1,2-a]-pyrazin-2-yl-2-methyl-indazole-7-carboxamide], for which the AC50 with HTT mRNA [1] and in the assay on MYB mRNA [2] was 1 to 10 µM in each case. For the same compound, the IC50 in the assay with HTT mRNA [1], with MYB mRNA [2], with HTT mRNA [3] and with MYB mRNA [4] was 1 to 10 µM in each case. Besides, in assay [5], the GI50 is 1 to 10 µM.
`Cc1cn2cc(NC(=O)c3c(F)cc(N4CCC(NC5CC5)CC4)c4cn(C)nc34)c(OC3CC3)c(F)c2n1` [Compound 382, N-[7-(cyclopropoxy)-8-fluoro-2-methyl-imidazo [1,2-a]-pyridin-6-yl]-4-[4-(cyclopropylamino)-1-piperidyl]-6-fluoro-2-methyl-indazole-7-carboxamide]: the AC50 with HTT mRNA [1] and in the assay with MYB mRNA [2] was < 0.1 µM throughout. Besides, the 50% inhibitory concentration (IC50) in the assay with HTT mRNA [1], in the assay with MYB mRNA [2], with HTT mRNA [3] and in the assay with MYB mRNA [4] was < 0.1 µM throughout. Besides, in assay [5], the GI50 was < 0.1 µM.
For the compound `CCNC1CCN(c2cc(F)c(C(=O)Nc3cn4cc(CF)nc(C)c4n3)c3nn(C)cc23)CC1` [Compound 383, 4-(4-(ethylamino)piperidin-1-yl)-6-fluoro-N-(6-(fluoromethyl)-8-methylimidazo[1,2-a]-pyrazin-2-yl)-2-methyl-2H-indazole-7-carboxamide 2,2,2-trifluoroacetate], the figures for the AC50 in the assay on HTT mRNA [1] and in the assay with MYB mRNA [2] were 0.1 to 1 µM and < 0.1 µM, respectively. Moreover, the IC50 in the assay with HTT mRNA [1] was > 10 µM; in the assay with MYB mRNA [2], < 0.1 µM; in the assay on HTT mRNA [3], > 10 µM; with MYB mRNA [4], < 0.1 µM. Moreover, in assay [5], the GI50 fell in the range of 1 to 10 µM.
Regarding `CCNC1CCN(c2cc(F)c(C(=O)Nc3cn4ccnc(C)c4n3)c3nn(C)cc23)CC1` [Compound 384, 4-[4-(ethylamino)-1-piperidyl]-6-fluoro-2-methyl-N-(8-methyl-imidazo[1,2-a]-pyrazin-2-yl)-indazole-7-carbox-amide], the AC50 in the assay on HTT mRNA [1] and in the assay on MYB mRNA [2] was > 10 µM in each case. Also, the IC50 with HTT mRNA [1], in the assay on MYB mRNA [2], in the assay on HTT mRNA [3] and in the assay with MYB mRNA [4] was > 10 µM in each case. The GI50 in assay [5] was > 10 µM.
Turning to `CCNC1CCN(c2ccc(C(=O)Nc3cc(OC)c4nc(C)sc4c3)c3nn(C)cc23)CC1` [Compound 385, 4-[4-(ethylamino)-1-piperidyl]-N-(4-methoxy-2-methyl-1,3-benzothiazol-6-yl)-2-methyl-indazole-7-carboxamide 2,2,2-trifluoroacetate], the AC50 lay in the range of 1 to 10 µM with HTT mRNA [1] and 0.1 to 1 µM in the assay on MYB mRNA [2]. The half-maximal inhibitory concentration (IC50) with HTT mRNA [1], in the assay with MYB mRNA [2], in the assay with HTT mRNA [3] and in the assay on MYB mRNA [4] was > 10 µM throughout. The GI50 in assay [5] was in the range of 1 to 10 µM.
Turning to `Cc1cn2cc(NC(=O)c3c(F)cc(N4CCC(NC5CC5)CC4)c4cn(C)nc34)cc(Oc3ccnnc3)c2n1` [Compound 386, 4-[4-(cyclopropylamino)-1-piperidyl]-6-fluoro-2-methyl-N-(2-methyl-8-pyridazin-4-yloxy-imidazo-[1,2-a]-pyridin-6-yl)indazole-7-carboxamide], the figures for the AC50 in the assay with HTT mRNA [1] and with MYB mRNA [2] were 1 to 10 µM and 0.1 to 1 µM, respectively. Also, the IC50 in the assay with HTT mRNA [1] was > 10 µM; in the assay with MYB mRNA [2], 0.1 to 1 µM; in the assay on HTT mRNA [3], > 10 µM; with MYB mRNA [4] it was 0.1 to 1 µM. Further, the GI50 in assay [5] was > 10 µM.
Turning to `CCNC1CCN(c2cc(F)c(C(=O)Nc3cc4cn(C)nc4cc3OC)c3nn(C)cc23)CC1` [Compound 387, 4-[4-(ethyl-amino)-1-piperidyl]-6-fluoro-N-(6-methoxy-2-methyl-indazol-5-yl)-2-methyl-indazole-7-carboxamide], the AC50 is 0.1 to 1 µM in the assay with HTT mRNA [1] and < 0.1 µM with MYB mRNA [2]. For the same compound, the IC50 with HTT mRNA [1] is 0.1 to 1 µM; with MYB mRNA [2], < 0.1 µM; with HTT mRNA [3], 0.1 to 1 µM; with MYB mRNA [4] it was < 0.1 µM. Further, the GI50 in assay [5] lay in the range of 1 to 10 µM.
As for `CCNC1CCN(c2ccc(C(=O)Nc3cc4cn(C)nc4cc3OC)c3nn(C)cc23)CC1` [Compound 388, 4-[4-(ethylamino)-1-piperidyl]-N-(6-methoxy-2-methyl-indazol-5-yl)-2-methyl-indazole-7-carboxamide], the concentration at half-maximal activity (AC50) lay within 1 to 10 µM with HTT mRNA [1] and 0.1 to 1 µM with MYB mRNA [2]. Besides, the IC50 lay in the range of 1 to 10 µM in the assay on HTT mRNA [1], 0.1 to 1 µM in the assay on MYB mRNA [2], 1 to 10 µM with HTT mRNA [3] and 0.1 to 1 µM in the assay on MYB mRNA [4]. The GI50 in assay [5] fell in the range of 1 to 10 µM.
Consider `COc1c(NC(=O)c2c(F)cc(N3CCC(NC45CC(C4)C5)CC3)c3cn(C)nc23)cn2cc(C)nc2c1F` [Compound 389, 4-[4-(1-bicyclo[1.1.1]pentanylamino)-1-piperidyl]-6-fluoro-N-(8-fluoro-7-methoxy-2-methylimidazo-[1,2-a]pyridin-6-yl)-2-methyl-indazole-7-carboxamide], for which the figures for the AC50 in the assay with HTT mRNA [1] and in the assay with MYB mRNA [2] were 0.1 to 1 µM and < 0.1 µM, respectively. Besides, the IC50 is 0.1 to 1 µM in the assay on HTT mRNA [1], < 0.1 µM in the assay on MYB mRNA [2], 0.1 to 1 µM with HTT mRNA [3] and < 0.1 µM in the assay with MYB mRNA [4]. Also, the concentration for 50% growth inhibition (GI50) in assay [5] was < 0.1 µM.
On to `CCNC1CCN(c2cc(F)c(C(=O)Nc3cn4cc(C)nc(C#N)c4n3)c3nn(C)cc23)CC1` [Compound 390, N-(8-cyano-6-methyl-imidazo[1,2-a]pyrazin-2-yl)-4-[4-(ethylamino)-1-piperidyl]-6-fluoro-2-methyl-indazole-7-carboxamide], for which the figures for the AC50 in the assay on HTT mRNA [1] and in the assay with MYB mRNA [2] were > 10 µM and < 0.1 µM, respectively. Further, the IC50 in the assay with HTT mRNA [1] was > 10 µM; in the assay on MYB mRNA [2], 0.1 to 1 µM; in the assay on HTT mRNA [3], > 10 µM; in the assay with MYB mRNA [4] it was 0.1 to 1 µM. In addition, in assay [5], the GI50 is 1 to 10 µM.
Turning to `CCNC1CCN(c2cc(F)c(C(=O)Nc3cn4cc(C)nc(Cl)c4n3)c3nn(C)cc23)CC1` [Compound 391, N-(8-chloro-6-methyl-imidazo[1,2-a]-pyrazin-2-yl)-4-[4-(ethylamino)-1-piperidyl]-6-fluoro-2-methyl-indazole-7-carboxamide], the AC50 with HTT mRNA [1] is > 10 µM; in the assay with MYB mRNA [2], < 0.1 µM. Further, the IC50 is > 10 µM with HTT mRNA [1], < 0.1 µM in the assay on MYB mRNA [2], > 10 µM with HTT mRNA [3] and < 0.1 µM in the assay with MYB mRNA [4]. Also, in assay [5], the GI50 lay in the range of 0.1 to 1 µM.
